{
  "source": "patent US20260200971A1",
  "about": "“METHODS FOR ISOLATING, DETECTING, AND QUANTIFYING INTERCELLULAR PROTEINS” (Fred Hutchinson Cancer Center, priority 2022, published 2026)",
  "key": {"Streptavidin": {"biological_target": "Streptavidin (Streptomyces avidinii, UniProt P22629)", "sequence (P22629 25-183, species assumed)": "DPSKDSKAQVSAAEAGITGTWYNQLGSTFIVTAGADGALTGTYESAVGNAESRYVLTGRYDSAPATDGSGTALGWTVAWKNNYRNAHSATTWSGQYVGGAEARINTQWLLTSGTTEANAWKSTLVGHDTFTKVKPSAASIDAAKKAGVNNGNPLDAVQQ", "details": "binding to streptavidin; cited from earlier work"}, "MCF7:PIK3CA-mutant cells": {"tested_on": "MCF7:PIK3CA-mutant cells", "test": "CyQuant proliferation assay, alpelisib dose response, PIK3CA mutant cells", "assay_type": "cell-based", "details": "estrogen deprived conditions, 5 days", "experimental": "(§1) Dose response curves are shown for three different MCF7 sublines (MCF7:WS8, MCF7:PIK3CA-mutant, MCF7:PIK3CA-WT) in response to treatment with fulvestrant or alpelisib. Proliferation was determined by a CyQuant genomic DNA quantification. Individual points represent the mean of n=8 replicate wells. Curves represent the least-squares fit of the Hill equation. Error bands represent the 95% confidence interval of the fit, as determined using the gradient method.\n(§2) The MCF7 cell line harbors two activating E545K mutant PIK3CA alleles. To evaluate the relationship between PIK3CA mutation, AREG expression, and drug resistance, the MCF7 parental line was compared to a previously published isogenic MCF7 line with a wildtype (WT) PIK3CA knock in, which has both mutant alleles corrected (see Beaver et al., Clin. Cancer Res. 19:5413-5422, 2013). […] Then, under estrogen deprived conditions, the growth of MCF7 PIK3CA mutant or MCF7:PIK3CA-WT cells was assessed over 5 days in the presence of varying doses of alpelisib (a PI3K inhibitor) (FIGS. 9B and 9C). Proliferation was quantified by an end-point genomic DNA quantification (CyQuant), and then the concentration-response curve was fit to a Hill equation to extract the IC50 and the asymptotic proliferation in the limit of infinite drug […]."}, "MCF7:PIK3CA-WT cells": {"tested_on": "MCF7:PIK3CA-WT cells", "test": "CyQuant proliferation assay, alpelisib dose response, PIK3CA-WT cells", "assay_type": "cell-based", "details": "estrogen deprived conditions, 5 days", "experimental": "as §1, §2"}, "HCC70 spheroids [1]": {"tested_on": "HCC70 spheroids", "test": "Streptavidin dot blot of lysates from labeled 3D cultures", "assay_type": "cell-based", "details": "for streptavidin binding signal, hydrogels containing HCC70 cells versus cell-free EHS matrix: fully embedded EHS matrix hydrogel (7-10 mg/mL protein)", "quoted_text": "To evaluate the extent to which the streptavidin signal produced was due to reactions with azide-labeled proteins, HCC70 breast cancer cell spheroids were cultured in 2% EHS matrix suspension culture with or without azidohomoalanine.\nTo assess the specificity of the labeling, streptavidin dot blots were performed with homogeneous lysates prepared from each of the labeling conditions. Additionally, unlabeled lysate was included to account for non-specific binding of the streptavidin reagent, itself. […] As a non-specific reaction control, the same labeling conditions were evaluated in “empty” EHS matrix hydrogels, which contained no cells. […] After labeling and washing the samples, homogeneous lysates of all conditions were prepared.\nGeneration of fully embedded 3D HCC70 cultures. HCC70 spheroids were first seeded in suspension in 2% EHS matrix (following one passage in 3D suspension culture). After allowing spheroids to form for 24 hours, the spheroids were pelleted, the supernatant was aspirated, and the spheroids were directly resuspended in ice-cold EHS matrix (undiluted from the manufacturer's preparation at a typical concentration of 7-10 mg/mL). Resuspension was achieved by slow pipetting up and down forty times on ice with pipette tips that were pre-chilled at −20° C. Next, EHS matrix “domes” were created by pipetting thirty microliters of the EHS matrix/spheroid suspension directly into the center of the well of a 24-well plate with a No. 1.5 polymer coverglass bottom. The plate was flipped upside down to prevent spheroids from settling onto the coverglass, and the plate was incubated at 37° C., 5% CO2, for 1 hour to allow the EHS matrix to form an elastic hydrogel. The domes were then covered with complete cell culture media (1 mL per well) and cultured at 37° C., 5% CO2.\nStreptavidin dot blot analysis. Spheroid lysates were prepared as described above. […]"}, "MCF7:WS8 cells [2]": {"tested_on": "MCF7:WS8 cells", "test": "Click labeling and PEA (Olink Explore 3072) differential intercellular protein expression", "assay_type": "cell-based", "quoted_text": "PEA was used to quantify protein abundance in MCF7:WS8 cells treated with estradiol (1 nM) and fulvestrant concomitantly or with estradiol (1 nM) alone. Proteins from cells treated with or without fulvestrant were ranked by a log 2-fold change in abundance and by a false-discovery rate and identified.\nThe eluted protein fraction was then subjected to proximity extension assay-based quantification using the Olink® Explore protocol to quantify the abundance of proteins in a 3072-plex panel.\nIntercellular protein discovery by the proximity extension assay and NPX normalized protein abundance calculation. Proteins were measured using the Olink® Explore 3072 panel (Olink Proteomics AB, Uppsala, Sweden) according to the manufacturer's instructions. For each experimental replicate, eighty microliters of elution solution (representing labeled proteins from eight hundred thousand cells), was used directly for the Olink Explore protocol."}, "MCF7:WS8 cells [3]": {"tested_on": "MCF7:WS8 cells", "test": "CyQuant genomic DNA proliferation assay, fulvestrant dose response", "assay_type": "cell-based", "details": "estradiol 1 nM; for IC50: Hill equation fit", "experimental": "as §1\nGiven that AREG induction by estradiol supports estradiol-dependent proliferation, the expectation was that constitutive overexpression of AREG would confer resistance to drugs that inhibit estrogen signaling (e.g., fulvestrant). […] The proliferation of each cell line was evaluated in the presence of estradiol (1 nM) and varying concentrations of fulvestrant using a genomic DNA quantification assay (CyQuant). The Hill equation was then used to determine the IC50 of each cell line following fulvestrant treatment (FIG. 9A). […] Therefore, targeting AREG signaling may alleviate endocrine therapy resistance."}, "HCC70 spheroids [4]": {"tested_on": "HCC70 spheroids", "test": "Confocal fluorescence microscopy of probe labeling in 3D spheroid culture with 2% EHS matrix", "assay_type": "cell-based", "details": "azidohomoalanine 24 hours, probe 30 minutes at 37 degrees Celsius, streptavidin Alexa-Fluor 488", "quoted_text": "To do this, 3D organotypic suspension cultures of the HCC70 breast cancer cell line were generated in the presence of EHS matrix. Next, spheroids were labeled with 500 pM azidohomoalanine for 24 hours, and after washing excess reagent, incubated the spheroids with each of the heterobifunctional probes (three hundred micromolar concentration, 30 minutes at 37 degrees Celsius). […] The samples were also counterstained with DAPI and Phalloidin to visualize the nuclei and the cell surface (F-actin in the HCC70 cells is subcortically localized near the membrane). Lastly, confocal fluorescence microscopy was used to qualitatively assess the spatial distribution of streptavidin labeling in all conditions (FIG. 2).\nAzidohomoalanine labeling of 3D HCC70 cultures in 2% EHS matrix. 3D suspension cultures of HCC70 cells in 2% EHS matrix were generated from 2D monolayer culture (as described above), dissociated once, and then plated in fresh 2% EHS matrix. After 48 hours of culture, spheroids were washed three times to remove excess methionine by centrifuging at 200×g for 3 minutes, aspirating the supernatant and resuspending in PBS (with calcium and magnesium). Azidohomoalanine containing media was freshly prepared by diluting a 500 mM azidohomoalanine DMSO stock solution 1,000-fold in methionine reduced 2% EHS matrix suspension media. The washed spheroids were resuspended in azidohomoalanine-containing 2% EHS matrix suspension media (in the same volume as the original suspension), plated in 6-well ultra-low attachment plates, and incubated in TC incubator at 37° C., 5% CO2 for 24 hours.\nSpheroids were cultured for 24 hours in the presence of azidohomoalanine to allow the azidohomoalanine to be incorporated into newly synthesized proteins at methionine residues. After 24 hours, spheroids were washed three times with PBS (containing calcium and magnesium) to remove unincorporated azidohomoalanine by centrifugation at 200×g for 1 minute, aspiration of the supernatant, and resuspension in the PBS wash buffer. […]"}, "TAMR cells": {"tested_on": "TAMR cells", "test": "Click labeling and PEA (Olink Explore 3072) differential intercellular protein expression", "assay_type": "cell-based", "details": "tamoxifen (100 nM) + estradiol versus estradiol, FDR<0.05, therapy resistant cells", "quoted_text": "Three-dimensional cultures of MCF7:WS8 cells and TAMR cells were generated in 2% EHS matrix suspension. Spheroids were treated with either 1) estradiol (10 nM) or 2) estradiol (10 nM) and tamoxifen (100 nM). […] The eluted protein fraction was then subjected to proximity extension assay-based quantification using the Olink® Explore protocol to quantify the abundance of proteins in a 3072-plex panel.\nFirst, a tamoxifen-induced protein signature was developed for each line by comparing how each cell line responded to tamoxifen treatment. Next, the log 2-fold change enrichment was quantified for cells treated with or without tamoxifen.\nMCF7 cells were seeded, as described above, in estrogen-depleted 2% EHS matrix suspension culture (containing charcoal-stripped FBS and phenol red free) for 24 hours to create estrogen-starved spheroids. […]\nProteins were measured using the Olink® Explore 3072 panel (Olink Proteomics AB, Uppsala, Sweden) according to the manufacturer's instructions. […] Libraries were subjected to a bead-based purification and quality was assessed using an Agilent 2100 bioanalyzer (Agilent Technologies, Palo Alto, CA). […]"}, "[5]": {"tested_on": "Laminin B1, Laminin C1, and Nidogen", "test": "LC/MS label-free quantification of EHS matrix proteins in eluted fraction versus starting lysate", "details": "HCC70 spheroids, 2% EHS matrix, streptavidin enrichment and elution with free biotin", "experimental": "Compositions of the EHS matrix vary from lot-to-lot, but three of the most abundant proteins EHS matrix preparations are known to be Laminin B1, Laminin C1, and Nidogen. LC/MS proteomics were performed on crude lysates prepared from organotypic cultures of HCC70 spheroids in 2% EHS matrix. As expected, the most abundant proteins in these crude lysates were the EHS matrix proteins, Laminin B1, Laminin Cl, and Nidogen (FIG. 5A). This was true regardless of whether the peptide search was performed against the human or mouse proteome, due to high sequence homology of these proteins between both species. […] Protein concentration of crude lysates was determined using a Pierce BCA assay kit (Thermo Fisher Scientific #23225) according to the manufacturer's protocol. […] Desalted samples were brought up in 2% acetonitrile in 0.1% formic acid and were analyzed by LC/ESI MS/MS with a Thermo Scientific Easy-nLC 1000 (Thermo Scientific, Waltham, MA) nano HPLC system coupled to a tribrid Orbitrap Fusion (Thermo Scientific, Waltham, MA) mass spectrometer. […] Label-free quantification data analysis of LC/MS samples. […] In the specific case in which the abundance of EHS matrix proteins was evaluated, a search was also performed against the Uniprot Mus musculus files (however, due to sequence homology the same conclusions were drawn regardless of whether the Mus musculus database was included in the search). […]"}, "Claudin 7": {"tested_on": "Claudin 7", "test": "Streptavidin bead capture, elution and Claudin 7 western blot", "design": "species or system human", "details": "HCC70 spheroids, mild competitive elution with free biotin versus denaturing elution", "experimental": "After lysing the spheroids, biotinylated or desthiobiotinylated proteins were captured using streptavidin-functionalized magnetic polystyrene beads. The unbound fraction was also collected to evaluate the capture efficiency. […] This competitive elution was performed in two sequential incubations at 37° C. and 4° C. The recovery of Claudin 7 was used to evaluate the efficiency with which full-length intercellular proteins were released from the magnetic bead. Claudin 7 is a well-known tight-junction protein associated with intercellular adhesions (FIG. 4A), and it is localized to the pericellular zones in HCC70 spheroids (FIG. 4D). Next, western blots against Claudin 7 were performed in the eluted fraction from the streptavidin pull-down, and the signal intensity of Claudin 7 from the 15 μg of HCC70 spheroid starting lysate was evaluated. […] Streptavidin magnetic bead enrichment. […] For every 100 μL of sample, 200 μL of the 10 mg/mL magnetic bead suspension were used. […] Next a magnetic bead pellet was prepared by separating the beads on a magnetic stand and removing the supernatant. […] Western blot and dot blot quantification. Western blot quantification was performed using ImageJ. […] Integrated fluorescence intensity was calculated using the “Measure” tool, and the background-corrected integrated fluorescence intensity was computed for each band."}, "[6]": {"tested_on": "breast epithelial MCF10A cells", "details": "2D culture, exogenous media supplement; cited from earlier work"}},
  "data": [
    {"molecule": "C[C@@H]1NC(=O)N[C@@H]1CCCCCC(=O)O", "note": "[Desthiobiotin]", "values": [
      {"measurement": "Kd", "setting": "Streptavidin", "result": 0.66, "unit": "nM"},
      {"measurement": "Koff", "setting": "Streptavidin", "result": 0.018, "unit": "s⁻¹"},
      {"measurement": "Kon", "setting": "Streptavidin", "result": "2.7e7 1/M 1/s"}
    ]},
    {"molecule": "Cc1nc(NC(=O)N2CCC[C@H]2C(N)=O)sc1-c1ccnc(C(C)(C)C(F)(F)F)c1", "note": "[alpelisib]", "values": [
      {"measurement": "increase in IC50 by AREG overexpression", "setting": "MCF7:PIK3CA-mutant cells", "result": 4, "unit": "fold"},
      {"measurement": "effect of AREG overexpression on alpelisib response", "setting": "MCF7:PIK3CA-WT cells", "result": "no effect"}
    ]},
    {"molecule": "[N-]=[N+]=NCC[C@H](N)C(=O)O", "note": "[azidohomoalanine]", "values": [
      {"measurement": "streptavidin binding versus non-labeled azidohomoalanine controls", "setting": "HCC70 spheroids [1]; 2% EHS matrix suspension, DBCO-PEG4-Desthiobiotin labeling", "result": 10, "unit": "fold"}
    ]},
    {"molecule": "C[C@]12CC[C@@H]3c4ccc(O)cc4CC[C@H]3[C@@H]1CC[C@@H]2O", "note": "[estradiol]", "values": [
      {"measurement": "number of proteins upregulated by at least 2-fold", "setting": "MCF7:WS8 cells [2]; estradiol versus estrogen-deprived controls, FDR<0.05", "result": "at least 188 proteins"}
    ]},
    {"molecule": "C[C@]12CC[C@@H]3c4ccc(O)cc4C[C@@H](CCCCCCCCC[S+]([O-])CCCC(F)(F)C(F)(F)F)[C@H]3[C@@H]1CC[C@@H]2O", "note": "(stereo partly drawn) [fulvestrant]", "values": [
      {"measurement": "IC50", "setting": "MCF7:WS8 cells [3]; MCF7:WS8, AREG overexpression line", "result": 255, "unit": "nM"},
      {"measurement": "IC50", "setting": "MCF7:WS8 cells [3]; MCF7:WS8, control line (ORF stuffer)", "result": 34, "unit": "nM"},
      {"measurement": "increase in IC50, AREG overexpression versus control", "setting": "MCF7:WS8 cells [3]", "result": 7.5, "unit": "fold"},
      {"measurement": "most significantly upregulated intercellular protein", "setting": "MCF7:WS8 cells [2]; estradiol (1 nM) + fulvestrant versus estradiol (1 nM) alone, FDR<0.05", "result": "ITGB6"}
    ]},
    {"molecule": "O=C1N[C@H]2[C@H](CS[C@H]2CCCCC(=O)ON2C(=O)CC(S(=O)(=O)[O-])C2=O)N1.[Na+]", "note": "(stereo partly drawn) [sulfo-NHS-biotin]", "values": [
      {"measurement": "labeling of the pericellular zone / intercellular spaces", "setting": "HCC70 spheroids [4]", "result": "unable to diffuse into intercellular zones of the organoids"},
      {"measurement": "streptavidin binding signal, hydrogels containing HCC70 cells versus cell-free EHS matrix", "setting": "HCC70 spheroids [1]", "result": "equal"}
    ]},
    {"molecule": "CC/C(=C(\\c1ccccc1)c1ccc(OCCN(C)C)cc1)c1ccccc1", "note": "[tamoxifen]", "values": [
      {"measurement": "number of proteins upregulated at least 2-fold in response to tamoxifen", "setting": "TAMR cells", "result": "forty-three"},
      {"measurement": "number of proteins upregulated at least 2-fold in response to tamoxifen", "setting": "MCF7:WS8 cells [2]; tamoxifen (100 nM) + estradiol versus estradiol, FDR<0.05, therapy sensitive cells", "result": "Thirty"}
    ]},
    {"molecule": "DBCO-PEG4-Desthiobiotin", "values": [
      {"measurement": "lower normalized abundance of Laminin B1, Laminin C1 and Nidogen versus starting lysates", "setting": "[5]", "result": "over 10 fold"},
      {"measurement": "labeling of the pericellular zone / intercellular spaces", "setting": "HCC70 spheroids [4]", "result": "exhibited pericellular labeling"},
      {"measurement": "recovery of Claudin 7 compared to the DBCO-sulfo-biotin samples", "setting": "Claudin 7", "result": 10, "unit": "fold"},
      {"measurement": "streptavidin binding signal, hydrogels containing HCC70 cells versus cell-free EHS matrix", "setting": "HCC70 spheroids [1]", "result": 10, "unit": "fold"}
    ]},
    {"molecule": "DBCO-sulfo-Biotin", "values": [
      {"measurement": "labeling of the pericellular zone / intercellular spaces", "setting": "HCC70 spheroids [4]", "result": "exhibited pericellular labeling"}
    ]},
    {"molecule": "recombinant amphiregulin: recombinant amphiregulin (AREG), EGF receptor family ligand (protein, UniProt P15514 101-187, looked up, Amphiregulin, recombinant amphiregulin (AREG), EGF receptor family ligand) Amphiregulin: SVRVEQVVKPPQNKTESENTSDKPKRKKKGGKNGKNRRNRKKKNPCNAEFQNFCIHGECKYIEHLEAVTCKCQQEYFGERCGEKSMK", "values": [
      {"measurement": "concentrations at which activity is exhibited", "setting": "[6]", "result": "5 to 50", "unit": "ng/mL"}
    ]}
  ]
}
